Where a name gives a salt, the structure may show the parent alone. Read-outs that look alike come from different tables or passages of the source.
Tests used:
NSCs = tested on: NSCs
Procedure: RNAs isolated from NSCs and neurons with and without drug treatments were hybridized to Illumina HumanRef-8 BeadChip (Illumina, Inc., San Diego, Calif., performed by Microarray core facility at the Burnham Institute for Medical Research). The Illumina array data were normalized by the quantile method, and then transformed log 2 ratio values for a zero mean for expression values of each gene across all samples. The statistical and bioinformatics analyses were conducted by using R and the bioconductor package (www.bioconductor.org). The gene set enrichment analysis was conducted using the GSEA software (www.broad.mit.edu/gsea).

[1] = tested on: human fetal-derived astrocytes; assay: Effect on human astrocytes (cell death); type: cell-based; details: up to 48 hours after treatment
Source text: Media was changed every other day and cells were passaged once a week at a 1:4 ratio.

[2] = Amiloride sensitive Na channels, 4 hours of exposure
[3] = Amine transporters, 4 hours of exposure
[4] = Ca activated K channels, 4 hours of exposure
[5] = Calcium channels, 4 hours of exposure
[6] = Cl channels, 4 hours of exposure
[7] = Delayed rectifier K channels, 4 hours of exposure
[8] = H ion transporters, 4 hours of exposure
[9] = Rectifier K channels, 4 hours of exposure
[10] = Voltage gated Na channels, 4 hours of exposure

CCCCc1oc2ccccc2c1C(=O)c1cc(I)c(OCCN(CC)CC)c(I)c1 [Amiodarone Hydrochloride]
ERG expression, Treated NSC (NSCs): 32.9
ACCN1 gene expression, Treated NSC (NSCs; [2]): 16.5
ACCN2 gene expression, Treated NSC (NSCs; [2]): 185.7
ACCN3 gene expression, Treated NSC (NSCs; [2]): 11
SLC1A2 gene expression, Treated NSC (NSCs; [3]): 15.7
SLC1A3 gene expression, Treated NSC (NSCs; [3]): 552.1
SLC6A3 gene expression, Treated NSC (NSCs; [3]): 21.2
SLC6A9 gene expression, Treated NSC (NSCs; [3]): 329.2
SLC6A12 gene expression, Treated NSC (NSCs; [3]): 9.6
KCNMB1 gene expression, Treated NSC (NSCs; [4]): 62.9
KCNN1 gene expression, Treated NSC (NSCs; [4]): 6.5
KCNN2 gene expression, Treated NSC (NSCs; [4]): 15.8
KCNN3 gene expression, Treated NSC (NSCs; [4]): 0.7
CACNA1A gene expression, Treated NSC (NSCs; [5]): 2
CACNA1C gene expression, Treated NSC (NSCs; [5]): 25.9
CACNB2 gene expression, Treated NSC (NSCs; [5]): 7.8
CACNG2 gene expression, Treated NSC (NSCs; [5]): 2.5
CLCN2 gene expression, Treated NSC (NSCs; [6]): 41.6
CLCN3 gene expression, Treated NSC (NSCs; [6]): 566.5
CLCN6 gene expression, Treated NSC (NSCs; [6]): 349.8
CLCN7 gene expression, Treated NSC (NSCs; [6]): 1305.5
CLIC1 gene expression, Treated NSC (NSCs; [6]): 122.2
KCNA5 gene expression, Treated NSC (NSCs; [7]): 24.2
KCNB1 gene expression, Treated NSC (NSCs; [7]): 32.8
KCNB2 gene expression, Treated NSC (NSCs; [7]): 25
ATP5B gene expression, Treated NSC (NSCs; [8]): 7030.3
ATP6V0A2 gene expression, Treated NSC (NSCs; [8]): 190.2
ATP6V0D1 gene expression, Treated NSC (NSCs; [8]): 3355
ATP6V1A gene expression, Treated NSC (NSCs; [8]): 1155.9
ATP6V1B2 gene expression, Treated NSC (NSCs; [8]): 385.4
SLC2A1 gene expression, Treated NSC (NSCs; [8]): 1274.8
SLC2A11 gene expression, Treated NSC (NSCs; [8]): 22.8
SLC35B1 gene expression, Treated NSC (NSCs; [8]): 1769.8
expression of Fos, FosB and DDIT3 (NSCs; NSCs, four hours after exposure): significantly up regulated
KCNC4 gene expression, Treated NSC (NSCs; [9]): 4.5
KCND2 gene expression, Treated NSC (NSCs; [9]): 2.3
KCNF1 gene expression, Treated NSC (NSCs; [9]): 189.2
KCNG1 gene expression, Treated NSC (NSCs; [9]): 150.4
KCNJ4 gene expression, Treated NSC (NSCs; [9]): 15.9
KCNJ6 gene expression, Treated NSC (NSCs; [9]): 317.3
KCNJ11 gene expression, Treated NSC (NSCs; [9]): 13.5
KCNQ3 gene expression, Treated NSC (NSCs; [9]): 3.4
KCNQ2 gene expression, Treated NSC (NSCs; Rectifier K channels, first line for this gene, 4 hours of exposure): 138.1
KCNQ2 gene expression, Treated NSC (NSCs; Rectifier K channels, second line for this gene, 4 hours of exposure): 919.6
SCN1A gene expression, Treated NSC (NSCs; [10]): 20.5
SCN3A gene expression, Treated NSC (NSCs; [10]): 5.7
SCN9A gene expression, Treated NSC (NSCs; [10]): 1.9
expression of KLF 10 (intrinsic mitochondrial apoptotic pathway) (NSCs; differentiated cells, treated versus untreated cells): not altered
AFF1 expression, Treated NSC (NSCs; four hours after exposure): 50.8
ARID3A expression, Treated NSC (NSCs; four hours after exposure): 2200
ASCL2 expression, Treated NSC (NSCs; four hours after exposure): 36
CREBL1 expression, Treated NSC (NSCs; four hours after exposure): 32.2
DDIT3 expression, Treated NSC (NSCs; four hours after exposure): 2270
DLX1 expression, Treated NSC (NSCs; four hours after exposure): 1550
DLX2 expression, Treated NSC (NSCs; four hours after exposure): 54.3
E2F2 expression, Treated NSC (NSCs; four hours after exposure): 635
E2F7 expression, Treated NSC (NSCs; four hours after exposure): 711
E2F8 expression, Treated NSC (NSCs; four hours after exposure): 82.7
EGR1 expression, Treated NSC (NSCs; four hours after exposure): 3100
EGR2 expression, Treated NSC (NSCs; four hours after exposure): 155
ELF4 expression, Treated NSC (NSCs; four hours after exposure): 103
ELF5 expression, Treated NSC (NSCs; four hours after exposure): 30.8
ELK3 expression, Treated NSC (NSCs; four hours after exposure): 89.9
ELK4 expression, Treated NSC (NSCs; four hours after exposure): 39.3
EN1 expression, Treated NSC (NSCs; four hours after exposure): 48.7
ETS1 expression, Treated NSC (NSCs; four hours after exposure): 952
ETV1 expression, Treated NSC (NSCs; four hours after exposure): 34.4
ETV4 expression, Treated NSC (NSCs; four hours after exposure): 672
FOS expression, Treated NSC (NSCs; four hours after exposure): 1160
FOSB expression, Treated NSC (NSCs; four hours after exposure): 174
FOXA2 expression, Treated NSC (NSCs; four hours after exposure): 36.8
FOXD1 expression, Treated NSC (NSCs; four hours after exposure): 79.7
FOXF2 expression, Treated NSC (NSCs; four hours after exposure): 39.3
FOXL2 expression, Treated NSC (NSCs; four hours after exposure): 120
FOXM1 expression, Treated NSC (NSCs; four hours after exposure): 287
GATA2 expression, Treated NSC (NSCs; four hours after exposure): 46.2
GLI2 expression, Treated NSC (NSCs; four hours after exposure): 227
HCLS1 expression, Treated NSC (NSCs; four hours after exposure): 40
HEY2 expression, Treated NSC (NSCs; four hours after exposure): 37.9
HIRA expression, Treated NSC (NSCs; four hours after exposure): 31.5
HMGB2 expression, Treated NSC (NSCs; four hours after exposure): 2170
HOXA2 expression, Treated NSC (NSCs; four hours after exposure): 770
HOXA13 expression, Treated NSC (NSCs; four hours after exposure): 33.2
HOXB1 expression, Treated NSC (NSCs; four hours after exposure): 30.6
HOXB2 expression, Treated NSC (NSCs; four hours after exposure): 1100
HOXB3 expression, Treated NSC (NSCs; four hours after exposure): 186
HOXB4 expression, Treated NSC (NSCs; four hours after exposure): 198
HOXB5 expression, Treated NSC (NSCs; four hours after exposure): 49.9
HOXD3 expression, Treated NSC (NSCs; four hours after exposure): 70.2
IRF1 expression, Treated NSC (NSCs; four hours after exposure): 38.9
KLF10 expression, Treated NSC (NSCs; four hours after exposure): 38.1
L3MBTL expression, Treated NSC (NSCs; four hours after exposure): 27.5
LHX8 expression, Treated NSC (NSCs; four hours after exposure): 42.9
MEF2C expression, Treated NSC (NSCs; four hours after exposure): 33.1
MEOX1 expression, Treated NSC (NSCs; four hours after exposure): 178
MSX2 expression, Treated NSC (NSCs; four hours after exposure): 41.9
MYEF2 expression, Treated NSC (NSCs; four hours after exposure): 30.6
NFATC3 expression, Treated NSC (NSCs; four hours after exposure): 32.4
NFATC4 expression, Treated NSC (NSCs; four hours after exposure): 32.8
NFKB2 expression, Treated NSC (NSCs; four hours after exposure): 68
NR1D2 expression, Treated NSC (NSCs; four hours after exposure): 44.9
NR2C2 expression, Treated NSC (NSCs; four hours after exposure): 65.3
NR4A2 expression, Treated NSC (NSCs; four hours after exposure): 30.4
NRK expression, Treated NSC (NSCs; four hours after exposure): 43.8
PAX8 expression, Treated NSC (NSCs; four hours after exposure): 98.9
PBX2 expression, Treated NSC (NSCs; four hours after exposure): 70.8
PRDM1 expression, Treated NSC (NSCs; four hours after exposure): 94.7
PRRX2 expression, Treated NSC (NSCs; four hours after exposure): 67.5
RELB expression, Treated NSC (NSCs; four hours after exposure): 53.6
RUNX1 expression, Treated NSC (NSCs; four hours after exposure): 43.3
SALL1 expression, Treated NSC (NSCs; four hours after exposure): 80.9
SIX4 expression, Treated NSC (NSCs; four hours after exposure): 185
STAT6 expression, Treated NSC (NSCs; four hours after exposure): 55.8
TAF5L expression, Treated NSC (NSCs; four hours after exposure): 77.4
TAF13 expression, Treated NSC (NSCs; four hours after exposure): 35.2
TBX2 expression, Treated NSC (NSCs; four hours after exposure): 46.9
TEAD3 expression, Treated NSC (NSCs; four hours after exposure): 87
TEAD4 expression, Treated NSC (NSCs; four hours after exposure): 235
TEF expression, Treated NSC (NSCs; four hours after exposure): 32.4
TGIF1 expression, Treated NSC (NSCs; four hours after exposure): 117
TP53 expression, Treated NSC (NSCs; four hours after exposure): 267
ZNF85 expression, Treated NSC (NSCs; four hours after exposure): 93.8
ZNF197 expression, Treated NSC (NSCs; four hours after exposure): 32.8
ZNF274 expression, Treated NSC (NSCs; four hours after exposure): 37.8
ZNF367 expression, Treated NSC (NSCs; four hours after exposure): 30.9
ZSCAN29 expression, Treated NSC (NSCs; four hours after exposure): 47.6
astrocyte cell death [1]: did not cause astrocyte cell death
